Where two headings read alike, the source gives them in different places.
Experiments:
[1] = target: T1, CYCLIN K (nuclear staining in CAL-120 cells) (Homo sapiens, UniProt O75909); test: CYCLIN K nuclear protein level: immunofluorescence high content analysis (CAL-120); type: cell-based; settings: 24 h, 50% reduction of nuclear CCNK staining intensity, median, read-out: CYCLIN K degradation IF, DC50-[mol/l] (median)
T1 construct: endogenous in cells; host or cells: CAL-120 human breast cancer cells (DSMZ ACC 459)
In short: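 CAL-120 breast cancer cells treated in dose-response for 24 h at 37 °C, PFA-fixed and immunostained for cyclin K with Hoechst counterstain. Confocal imaging quantified nuclear intensity; DC50 is the concentration giving 50% reduction of nuclear CCNK staining, normalized to DMSO and control.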

CDK9/CycT1 = target: T2, CDK9/CycT1 (Homo sapiens, UniProt P50750); test: CDK9/CycT1 high ATP kinase assay (TR-FRET, 2 mM ATP); type: biochemical
T2 construct: Recombinant full-length His-tagged human CDK9 and CycT1; purchased Life Technologies PV4131; host or cells: insect cells
In short: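 Full-length His-tagged human CDK9/CycT1 (insect cell, ~0.5 μg/mL) preincubated 15 min at 22 °C with compound in Tris pH 8.0, MgCl2, DTT buffer before reaction with biotinylated peptide substrate at high ATP (2 mM).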

[2] = system: MDA-MB-231, human breast cancer cells; test: Proliferation assay MDA-MB-231 (crystal violet, 4 days); type: cell-based; settings: Homo sapiens, MDA-MB-231 cells, median, read-out: Prolif-MDA MB-231, IC50-[mol/l] (median)
In short: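 Cells seeded at 4,000/well in medium with 10% FCS; after 24 h, compounds added at 0.01-10 µmol/L (0.1% DMSO) for 4 days. Glutaraldehyde-fixed, crystal violet-stained, absorbance at 595 nm normalized to zero-point plate (0%) and untreated cells (100%); IC50 by 4-parameter fit.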

[3] = 2 mM ATP (high ATP), median, read-out: CDK9/CyclinT1, 2 mM ATP (high ATP), IC50 (median)

T2 sequence (P50750 whole entry): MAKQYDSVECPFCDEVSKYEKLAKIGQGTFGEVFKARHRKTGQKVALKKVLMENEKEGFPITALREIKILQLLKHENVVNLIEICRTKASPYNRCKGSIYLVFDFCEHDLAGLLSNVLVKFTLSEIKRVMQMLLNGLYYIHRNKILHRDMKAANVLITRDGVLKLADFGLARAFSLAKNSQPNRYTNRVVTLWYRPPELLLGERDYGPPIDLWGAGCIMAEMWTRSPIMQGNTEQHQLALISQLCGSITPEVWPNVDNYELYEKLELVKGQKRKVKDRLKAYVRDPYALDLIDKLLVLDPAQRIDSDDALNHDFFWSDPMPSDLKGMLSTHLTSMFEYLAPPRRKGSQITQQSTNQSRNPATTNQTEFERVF
T2 sequence (O60563 whole entry partner): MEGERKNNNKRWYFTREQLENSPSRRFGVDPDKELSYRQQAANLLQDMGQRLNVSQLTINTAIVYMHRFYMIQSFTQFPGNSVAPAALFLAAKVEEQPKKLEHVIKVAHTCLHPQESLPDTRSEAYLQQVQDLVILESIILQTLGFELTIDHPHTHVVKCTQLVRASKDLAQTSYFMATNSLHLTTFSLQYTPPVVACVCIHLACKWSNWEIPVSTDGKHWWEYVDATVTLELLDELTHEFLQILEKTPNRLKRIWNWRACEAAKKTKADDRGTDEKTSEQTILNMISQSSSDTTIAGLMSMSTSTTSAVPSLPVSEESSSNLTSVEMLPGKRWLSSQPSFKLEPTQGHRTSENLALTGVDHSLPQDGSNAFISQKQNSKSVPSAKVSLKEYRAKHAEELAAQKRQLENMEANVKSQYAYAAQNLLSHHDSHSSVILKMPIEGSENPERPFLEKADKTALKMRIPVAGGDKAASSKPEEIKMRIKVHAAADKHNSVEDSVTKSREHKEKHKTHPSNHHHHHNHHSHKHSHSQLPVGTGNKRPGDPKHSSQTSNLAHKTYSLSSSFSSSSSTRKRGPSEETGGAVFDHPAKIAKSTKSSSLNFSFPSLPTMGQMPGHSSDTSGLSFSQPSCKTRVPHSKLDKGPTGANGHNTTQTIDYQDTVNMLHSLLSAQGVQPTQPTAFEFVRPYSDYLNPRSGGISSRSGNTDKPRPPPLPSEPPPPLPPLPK
T1 sequence (O75909 whole entry): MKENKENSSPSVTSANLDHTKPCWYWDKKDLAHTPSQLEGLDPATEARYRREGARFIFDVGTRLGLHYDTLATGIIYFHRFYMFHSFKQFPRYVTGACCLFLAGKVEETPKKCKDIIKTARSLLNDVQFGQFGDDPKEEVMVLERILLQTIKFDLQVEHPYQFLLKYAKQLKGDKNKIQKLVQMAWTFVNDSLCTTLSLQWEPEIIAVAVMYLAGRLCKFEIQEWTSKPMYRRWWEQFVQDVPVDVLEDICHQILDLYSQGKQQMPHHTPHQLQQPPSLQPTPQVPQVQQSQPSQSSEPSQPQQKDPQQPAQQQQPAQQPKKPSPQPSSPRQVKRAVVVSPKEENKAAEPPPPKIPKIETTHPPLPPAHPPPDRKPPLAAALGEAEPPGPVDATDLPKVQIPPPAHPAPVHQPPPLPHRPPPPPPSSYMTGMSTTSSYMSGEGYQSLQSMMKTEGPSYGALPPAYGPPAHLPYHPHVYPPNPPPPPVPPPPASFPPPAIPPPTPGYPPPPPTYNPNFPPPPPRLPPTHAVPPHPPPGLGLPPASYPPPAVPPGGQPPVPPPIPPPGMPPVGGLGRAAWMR
T1 sequence (Q9NYV4 whole entry partner): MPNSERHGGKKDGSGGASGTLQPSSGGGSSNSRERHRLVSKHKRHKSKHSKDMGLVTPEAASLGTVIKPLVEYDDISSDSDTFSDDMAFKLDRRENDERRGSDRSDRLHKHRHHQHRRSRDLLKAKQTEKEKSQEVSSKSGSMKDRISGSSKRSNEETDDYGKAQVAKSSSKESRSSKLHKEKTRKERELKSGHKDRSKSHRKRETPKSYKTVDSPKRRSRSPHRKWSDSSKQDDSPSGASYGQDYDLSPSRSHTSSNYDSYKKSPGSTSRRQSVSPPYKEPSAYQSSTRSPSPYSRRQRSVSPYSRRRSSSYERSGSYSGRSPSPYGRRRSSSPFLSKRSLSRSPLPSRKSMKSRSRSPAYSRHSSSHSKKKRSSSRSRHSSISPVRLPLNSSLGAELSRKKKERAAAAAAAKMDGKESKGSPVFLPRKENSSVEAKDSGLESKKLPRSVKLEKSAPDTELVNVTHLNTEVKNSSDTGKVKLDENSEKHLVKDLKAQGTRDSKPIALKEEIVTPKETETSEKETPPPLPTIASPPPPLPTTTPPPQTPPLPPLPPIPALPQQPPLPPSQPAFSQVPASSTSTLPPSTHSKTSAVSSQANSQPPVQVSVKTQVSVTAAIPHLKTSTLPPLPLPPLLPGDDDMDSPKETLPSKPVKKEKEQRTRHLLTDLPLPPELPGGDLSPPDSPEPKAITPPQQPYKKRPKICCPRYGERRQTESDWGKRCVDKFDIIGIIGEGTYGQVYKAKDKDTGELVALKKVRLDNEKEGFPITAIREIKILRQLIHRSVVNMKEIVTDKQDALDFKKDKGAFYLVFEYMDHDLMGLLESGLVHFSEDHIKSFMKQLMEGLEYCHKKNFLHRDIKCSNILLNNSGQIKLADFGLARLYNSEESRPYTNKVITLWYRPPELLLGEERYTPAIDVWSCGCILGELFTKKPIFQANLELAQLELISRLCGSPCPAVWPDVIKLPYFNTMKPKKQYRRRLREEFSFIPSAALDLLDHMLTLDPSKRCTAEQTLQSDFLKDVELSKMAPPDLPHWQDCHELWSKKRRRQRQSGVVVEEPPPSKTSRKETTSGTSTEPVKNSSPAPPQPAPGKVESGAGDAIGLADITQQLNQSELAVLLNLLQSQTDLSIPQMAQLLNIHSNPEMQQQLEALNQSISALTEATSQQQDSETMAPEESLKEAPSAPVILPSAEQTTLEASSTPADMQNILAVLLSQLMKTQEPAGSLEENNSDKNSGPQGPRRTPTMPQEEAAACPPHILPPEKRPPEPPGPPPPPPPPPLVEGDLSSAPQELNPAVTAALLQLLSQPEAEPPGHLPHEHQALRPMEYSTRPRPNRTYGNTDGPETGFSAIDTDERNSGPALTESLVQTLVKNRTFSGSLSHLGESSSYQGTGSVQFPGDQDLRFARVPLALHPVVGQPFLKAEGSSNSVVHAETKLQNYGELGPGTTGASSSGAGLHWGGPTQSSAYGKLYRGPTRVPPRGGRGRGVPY

Row | DC50 [1] [nM] | IC50 (CDK9/CycT1; [3]) [nM] | IC50 ([2]; MDA-MB-231, 96 h) [nM] | Compound | IC50 (CDK9/CycT1) [nM] | IC50 ([2]; 96 h) [nM]
1 | 0.113 | > 20000 | 3.78 | Fc1cc2nc(CNc3nc(N4CCOCC4)nc4c(C(F)(F)F)cnn34)[nH]c2cc1F [Example 333, N-[(5,6-difluoro-1H-benzimidazol-2-yl)methyl]-2-(morpholin-4-yl)-8-(trifluoromethyl)pyrazolo[1,5-a][1,3,5]triazin-4-amine] |  | 
2 | 0.369 | > 20000 | 2.45 | CN1CCN(c2nc(NCc3nc4cc(F)c(Cl)cc4[nH]3)n3ncc(Br)c3n2)CC1 [Example 337, 8-bromo-N-[(6-chloro-5-fluoro-1H-benzimidazol-2-yl)methyl]-2-(4-methylpiperazin-1-yl)pyrazolo[1,5-a][1,3,5]triazin-4-amine] |  | 
3 | 0.827 | 12600 | 4.36 | Cc1cc2nc(CNc3nc(N4CCOCC4)nc4c(Br)cnn34)[nH]c2cc1C [Example 340, 8-bromo-N-[(5,6-dimethyl-1H-benzimidazol-2-yl)methyl]-2-(morpholin-4-yl)pyrazolo[1,5-a][1,3,5]triazin-4-amine] |  | 
4 | 0.29 | 17400 | 3.73 | Fc1cc2nc(CNc3nc(N4CCOCC4)nc4c(Br)cnn34)[nH]c2cc1F [Example 341, 8-bromo-N-[(5,6-difluoro-1H-benzimidazol-2-yl)methyl]-2-(morpholin-4-yl)pyrazolo[1,5-a][1,3,5]triazin-4-amine] |  | 
5 | 0.053 | > 20000 | 1.97 | Cc1cc2nc(CNc3nc(N4CCN(C)CC4)nc4c(Br)cnn34)[nH]c2cc1C [Example 342, 8-bromo-N-[(5,6-dimethyl-1H-benzimidazol-2-yl)methyl]-2-(4-methylpiperazin-1-yl)pyrazolo[1,5-a][1,3,5]triazin-4-amine] |  | 
6 | 0.0978 | 4270 | 2.84 | Cc1cc2nc(CNc3nc(N(C)CC(C)(C)O)nc4c(Br)cnn34)[nH]c2cc1C [Example 343, 1-[(8-bromo-4-{[(5,6-dimethyl-1H-benzimidazol-2-yl)methyl]amino}pyrazolo[1,5-a][1,3,5]triazin-2-yl)(methyl)amino]-2-methylpropan-2-ol] |  | 
7 | 0.149 | > 20000 | 4.67 | CN1CCN(c2nc(NCc3nc4cc(F)c(F)cc4[nH]3)n3ncc(Br)c3n2)CC1 [Example 346, 8-bromo-N-[(5,6-difluoro-1H-benzimidazol-2-yl)methyl]-2-(4-methylpiperazin-1-yl)pyrazolo[1,5-a][1,3,5]triazin-4-amine] |  | 
8 | 0.227 | 3930 | 4.28 | Fc1c(Cl)ccc2[nH]c(CNc3nc(N4CCOCC4)nc4c(Br)cnn34)nc12 [Example 372, 8-bromo-N-[(5-chloro-4-fluoro-1H-benzimidazol-2-yl)methyl]-2-(morpholin-4-yl)pyrazolo[1,5-a][1,3,5]triazin-4-amine] |  | 

Further lines, the molecule ahead of its results:

Row | Compound | DC50 [1] [nM] | IC50 (CDK9/CycT1; [3]) [nM] | IC50 ([2]; MDA-MB-231, 96 h) [nM] | IC50 (CDK9/CycT1) [nM] | IC50 ([2]; 96 h) [nM]
9 | CN(CC(C)(C)O)c1nc(NCc2nc3cc(Cl)c(Cl)cc3[nH]2)n2ncc(Br)c2n1 [Example 331, 1-[(8-bromo-4-{[(5,6-dichloro-1H-benzimidazol-2-yl)methyl]amino}pyrazolo[1,5-a][1,3,5]triazin-2-yl)(methyl)amino]-2-methylpropan-2-ol] | 0.44 | 4900 | 3.75 |  | 
10 | Clc1cc2nc(CNc3nc(N4CC5CCC(C4)N5)nc4c(Br)cnn34)[nH]c2cc1Cl [Example 334, 8-bromo-2-(3,8-diazabicyclo[3.2.1]octan-3-yl)-N-[(5,6-dichloro-1H-benzimidazol-2-yl)methyl]pyrazolo[1,5-a][1,3,5]triazin-4-amine] | 2.06 | 8140 | 2.18 |  | 
11 | CN(CC(C)(C)O)c1nc(NCc2nc3cc(F)c(Cl)cc3[nH]2)n2ncc(Br)c2n1 [Example 338, 1-[(8-bromo-4-{[(6-chloro-5-fluoro-1H-benzimidazol-2-yl)methyl]amino}pyrazolo[1,5-a][1,3,5]triazin-2-yl)(methyl)amino]-2-methylpropan-2-ol] | 0.17 | 8300 | 3.1 |  | 
12 | CN1CCN(c2nc(NCc3nc4cc(C(F)(F)F)ccc4[nH]3)n3ncc(Br)c3n2)CC1 [Example 344, 8-bromo-2-(4-methylpiperazin-1-yl)-N-{[5-(trifluoromethyl)-1H-benzimidazol-2-yl]methyl}pyrazolo[1,5-a][1,3,5]triazin-4-amine] | 0.392 | > 20000 | 4.82 |  | 
13 | CN(CC(C)(C)O)c1nc(NCc2nc3cc(C(F)(F)F)ccc3[nH]2)n2ncc(Br)c2n1 [Example 345, 1-{[8-bromo-4-({[5-(trifluoromethyl)-1H-benzimidazol-2-yl]methyl}amino)pyrazolo[1,5-a][1,3,5]triazin-2-yl](methyl)amino}-2-methylpropan-2-ol] | 0.698 | 6240 | 3.44 |  | 
14 | CN(CC(C)(C)O)c1nc(NCc2nc3cc(F)c(F)cc3[nH]2)n2ncc(Br)c2n1 [Example 347] | 0.101 | 10400 | 4.35 |  | 
15 | Fc1cc2nc(CNc3nc(N4CC5CCC(C4)N5)nc4c(Br)cnn34)[nH]c2cc1Cl [Example 348, 8-bromo-N-[(6-chloro-5-fluoro-1H-benzimidazol-2-yl)methyl]-2-(3,8-diazabicyclo[3.2.1]octan-3-yl)pyrazolo[1,5-a][1,3,5]triazin-4-amine] | 1.17 |  |  | 14000 | 2
16 | Brc1cnn2c(NCc3nc4ccccc4[nH]3)nc(N3CCN4CCC3CC4)nc12 [Example 349, N-[(1H-benzimidazol-2-yl)methyl]-8-bromo-2-(1,4-diazabicyclo[3.2.2]nonan-4-yl)pyrazolo[1,5-a][1,3,5]triazin-4-amine] | 0.784 | > 20000 | 12.9 |  | 
17 | Cc1cc2nc(CNc3nc(N4CC5CCC(C4)N5)nc4c(Br)cnn34)[nH]c2cc1C [Example 353, 8-bromo-2-(3,8-diazabicyclo[3.2.1]octan-3-yl)-N-[(5,6-dimethyl-1H-benzimidazol-2-yl)methyl]pyrazolo[1,5-a][1,3,5]triazin-4-amine] | 0.644 | 12700 | 1.81 |  | 
18 | FC(F)(F)c1ccc2[nH]c(CNc3nc(N4CC5CCC(C4)N5)nc4c(Br)cnn34)nc2c1 [Example 354, 8-bromo-2-(3,8-diazabicyclo[3.2.1]octan-3-yl)-N-{[5-(trifluoromethyl)-1H-benzimidazol-2-yl]methyl}pyrazolo[1,5-a][1,3,5]triazin-4-amine] | 1.65 | > 20000 | 3.05 |  | 
19 | Fc1cc2nc(CNc3nc(N4CC5CCC(C4)N5)nc4c(Br)cnn34)[nH]c2cc1F [Example 355, 8-bromo-2-(3,8-diazabicyclo[3.2.1]octan-3-yl)-N-[(5,6-difluoro-1H-benzimidazol-2-yl)methyl]pyrazolo[1,5-a][1,3,5]triazin-4-amine] | 0.481 | > 20000 | 3.2 |  | 
20 | CN1C2CCC1CN(c1nc(NCc3nc4c(F)c(F)ccc4[nH]3)n3ncc(C(F)(F)F)c3n1)C2 [Example 356, N-[(4,5-difluoro-1H-benzimidazol-2-yl)methyl]-2-(8-methyl-3,8-diazabicyclo[3.2.1]octan-3-yl)-8-(trifluoromethyl)pyrazolo[1,5-a][1,3,5]triazin-4-amine] | 2.01 | > 20000 | 5.25 |  | 
21 | Fc1ccc2[nH]c(CNc3nc(N4CCOCC4)nc4c(Cl)cnn34)nc2c1F [Example 357] | 0.552 | 10000 | 10.4 |  | 
22 | Fc1c(Cl)ccc2[nH]c(CNc3nc(N4CCOCC4)nc4c(C5CC5)cnn34)nc12 [Example 370, N-[(5-chloro-4-fluoro-1H-benzimidazol-2-yl)methyl]-8-cyclopropyl-2-(morpholin-4-yl)pyrazolo[1,5-a][1,3,5]triazin-4-amine] | 0.258 | > 20000 | 7.18 |  | 
23 | CN1CCN(c2nc(NCc3nc4c(F)c(Cl)ccc4[nH]3)n3ncc(C4CC4)c3n2)CC1 [Example 371, N-[(5-chloro-4-fluoro-1H-benzimidazol-2-yl)methyl]-8-cyclopropyl-2-(4-methylpiperazin-1-yl)pyrazolo[1,5-a][1,3,5]triazin-4-amine] | 0.652 | > 20000 | 7.8 |  | 
24 | CN1CCN(c2nc(NCc3nc4c(F)c(Cl)ccc4[nH]3)n3ncc(Br)c3n2)CC1 [Example 373, 8-bromo-N-[(5-chloro-4-fluoro-1H-benzimidazol-2-yl)methyl]-2-(4-methylpiperazin-1-yl)pyrazolo[1,5-a][1,3,5]triazin-4-amine] | 0.0805 | 14400 | 3.33 |  | 
25 | CN(CC(C)(C)O)c1nc(NCc2nc3c(F)c(Cl)ccc3[nH]2)n2ncc(Br)c2n1 [Example 374, 1-[(8-bromo-4-{[(5-chloro-4-fluoro-1H-benzimidazol-2-yl)methyl]amino}pyrazolo[1,5-a][1,3,5]triazin-2-yl)(methyl)amino]-2-methylpropan-2-ol] | 0.345 | 1640 | 3.62 |  | 
